This assay concerns the target T1, Human HPK1, catalytic domain (Homo sapiens, UniProt Q92918).
T1 construct: purchased Carna
T1 sequence (Q92918 1-346): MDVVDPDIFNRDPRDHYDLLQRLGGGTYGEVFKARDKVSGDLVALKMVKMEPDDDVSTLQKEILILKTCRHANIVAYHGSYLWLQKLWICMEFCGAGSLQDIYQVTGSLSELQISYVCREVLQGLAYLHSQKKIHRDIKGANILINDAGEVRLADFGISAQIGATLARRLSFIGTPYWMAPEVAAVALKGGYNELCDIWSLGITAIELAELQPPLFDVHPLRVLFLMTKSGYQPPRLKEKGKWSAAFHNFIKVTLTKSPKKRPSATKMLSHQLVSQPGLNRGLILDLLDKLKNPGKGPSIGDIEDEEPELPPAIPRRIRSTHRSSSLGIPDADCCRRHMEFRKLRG
The assay can be described thus: HPK1-SLP76 TR-FRET assay. Type of assay: biochemical. To be noted: 75 pM HPK1, 10 uM ATP, 10 nM SLP76, 30 min compound pre-incubation. For orientation: Time-resolved FRET reads energy transfer from a long-lived donor to a nearby acceptor.

The structures appear in SMILES notation.

As usually defined, the IC50 is the concentration needed to halve the response being measured. A higher IC50 goes with weaker potency.

The compound `COc1cc(C2CNC2)ccc1Nc1ncc(C(N)=O)c(Nc2ccccc2Br)n1` [Example 8-4, 2-((4-(azetidin-3-yl)-2-methoxyphenyl)amino)-4-((2-bromophenyl)amino)pyrimidine-5-carboxamide] yielded an IC50 of 13.9 nM. With `COc1cc2c(cc1Nc1ncc(C(N)=O)c(Nc3c(F)cccc3C3CCOCC3)n1)CN(C)CC2` [Example 13-12, 4-{[2-fluoro-6-(oxan-4-yl)phenyl]amino}-2-[(6-methoxy-2-methyl-1,2,3,4-tetrahydroisoquinolin-7-yl)amino]pyrimidine-5-carboxamide] the figure was 0.12 nM. With `Cc1cccc(F)c1Nc1nc(Nc2cnn(CC(F)(F)F)c2)ncc1C(N)=O` [Example 4-24, 4-[(2-fluoro-6-methylphenyl)amino]-2-{[1-(2,2,2-trifluoroethyl)-1H-pyrazol-4-yl]amino}pyrimidine-5-carboxamide] the figure was 594 nM. In turn, `COc1cc2c(cc1Nc1ncc(C(N)=O)c(NC3CC4CCC(C3)N4)n1)CN(C)CC2` (stereo not shown) [Example 26-27, 4-[(8-azabicyclo[3.2.1]octan-3-yl)amino]-2-[(6-methoxy-2-methyl-1,2,3,4-tetrahydroisoquinolin-7-yl)amino]pyrimidine-5-carboxamide] showed a 50% inhibitory concentration (IC50) of 106 nM. With `COc1cc2c(cc1Nc1ncc(C(N)=O)c(Nc3ccccc3Br)n1)CN(CC(F)(F)F)CC2` [Example 10-2, 4-((2-bromophenyl)amino)-2-((6-methoxy-2-(2,2,2--trifluoroethyl)-1,2,3,4-tetrahydroisoquinolin-7-yl)amino)pyrimidine-5-carboxamide], it took 246 nM to reach half-maximal inhibition (IC50).

In the case of `COc1cc2c(cc1Nc1ncc(C(N)=O)c(Nc3cccc4c3CCN(C(C)=O)C4)n1)CN(C)CC2` [Example 15-1, 4-[(2-acetyl-1,2,3,4-tetrahydroisoquinolin-5-yl)amino]-2-[(6-methoxy-2-methyl-1,2,3,4-tetrahydroisoquinolin-7-yl)amino]pyrimidine-5-carboxamide], the half-maximal inhibitory concentration (IC50) turned out to be 0.48 nM. The compound `Cc1cccc(F)c1Nc1nc(Nc2cnn(CC3CC3)c2)ncc1C(N)=O` [Example 4-22, 2-{[1-(cyclopropylmethyl)-1H-pyrazol-4-yl]amino}-4-[(2-fluoro-6-methylphenyl)amino] pyrimidine-5-carboxamide] came in with an IC50 of 384 nM. Take `COc1cc(N2CCNCC2)ccc1Nc1ncc(C(N)=O)c(Nc2ccccc2Br)n1` [Example 7-10, 4-[(2-bromophenyl)amino]-2-{[2-methoxy-4-(piperazin-1-yl)phenyl]amino}pyrimidine-5-carboxamide]: the half-maximal inhibitory concentration (IC50) was found to be 34.2 nM. With `COc1ccc(C(N)=O)cc1Nc1ncc(C(N)=O)c(Nc2ccccc2Br)n1` [Example 7-95, 4-[(2-bromophenyl)amino]-2-[(5-carbamoyl-2-methoxyphenyl)amino]pyrimidine-5-carboxamide], the IC50 came out at 548 nM. `NC(=O)c1cnc(Nc2cc3n(n2)CCC3)nc1Nc1cccc2c1CCNC2=O` [Example 7-58, 2-[(5,6-dihydro-4H-pyrrolo[1,2-b]pyrazol-2-yl)amino]-4-[(1-oxo-1,2,3,4-tetrahydroisoquinolin-5-yl)amino]pyrimidine-5-carboxamide] gave an IC50 of 3.65 nM. Turning to `N#CC1(c2ccc(Nc3ncc(C(N)=O)c(Nc4cccc5c4CCNC5)n3)cc2)CC1` [Example 7-15, 2-{[4-(1-cyanocyclopropyl)phenyl]amino}-4-[(1,2,3,4-tetrahydroisoquinolin-5-yl)amino]pyrimidine-5-carboxamide], the half-inhibitory concentration (IC50) worked out at 0.13 nM. In the case of `Cn1ncc(Nc2ncc(C(N)=O)c(Nc3cccc4c3CCNC4=O)n2)c1C(F)F` [Example 7-54, 2-{[5-(difluoromethyl)-1-methyl-1H-pyrazol-4-yl]amino}-4-[(1-oxo-1,2,3,4-tetrahydroisoquinolin-5-yl)amino]pyrimidine-5-carboxamide], inhibition was half-maximal at 82.5 nM (IC50). With `COc1cc2c(cc1Nc1ncc(C(N)=O)c(Nc3cccc4c3CCN(CC(C)(C)O)C4)n1)CN(C)CC2` [Example 7-28, 4-{[2-(2-hydroxy-2-methylpropyl)-1,2,3,4-tetrahydroisoquinolin-5-yl]amino}-2-[(6-methoxy-2-methyl-1,2,3,4-tetrahydroisoquinolin-7-yl)amino]pyrimidine-5-carboxamide] the figure was 0.51 nM; with `COCCOCCOCCCN1CCc2cc(OC)c(Nc3ncc(C(N)=O)c(Nc4ccccc4Br)n3)cc2C1` [Example 9-5, 4-((2-bromophenyl)amino)-2-((6-methoxy-2-(3-(2-(2-methoxyethoxy)ethoxy)propyl)-1,2,3,4-tetrahydroisoquinolin-7-yl)amino)pyrimidine-5-carboxamide], 0.71 nM; with `COc1ccc(Cl)cc1Nc1ncc(C(N)=O)c(Nc2cccc3c2CCNC3=O)n1` [Example 25-33, 2-[(5-chloro-2-methoxyphenyl)amino]-4-[(1-oxo-1,2,3,4-tetrahydroisoquinolin-5-yl)amino]pyrimidine-5-carboxamide], 187 nM. The compound `COc1cc2c(cc1Nc1ncc(C(N)=O)c(Nc3c(Cl)ccc(C)c3F)n1)CN(C)CC2` [Example 4-20, 4-[(6-chloro-2-fluoro-3-methylphenyl)amino]-2-[(6-methoxy-2-methyl-1,2,3,4-tetrahydroisoquinolin-7-yl)amino]pyrimidine-5-carboxamide] yielded an IC50 of 0.21 nM. With `COc1cc2c(cc1Nc1ncc(C(N)=O)c(N[C@H]3CC[C@H](C)CC3)n1)CN(C)CC2` [Example 26-29, 2-[(6-methoxy-2-methyl-1,2,3,4-tetrahydroisoquinolin-7-yl)amino]-4-[(trans-4-methylcyclohexyl)amino]pyrimidine-5-carboxamide], the IC50 was 1.43 nM. `COc1cc2c(cc1Nc1ncc(C(N)=O)c(Nc3ccc(F)c(C#N)c3)n1)CN(C)CC2` [Example 7-26, 4-[(3-cyano-4-fluorophenyl)amino]-2-[(6-methoxy-2-methyl-1,2,3,4-tetrahydroisoquinolin-7-yl)amino]pyrimidine-5-carboxamide] showed an IC50 of 15 nM.

The compound `COc1cc2c(cc1Nc1ncc(C(N)=O)c(Nc3cccc4c3CCNC4)n1)CN(C)CC2` [Example 7-4, 2-[(6-methoxy-2-methyl-1,2,3,4-tetrahydroisoquinolin-7-yl)amino]-4-[(1,2,3,4-tetrahydroisoquinolin-5-yl)amino]pyrimidine-5-carboxamide] registered an IC50 of 0.07 nM. For the compound `COc1cc2c(cc1Nc1ncc(C(N)=O)c(Nc3ccccc3-c3ncco3)n1)CN(C)CC2` [Example 14-3, 2-[(6-methoxy-2-methyl-1,2,3,4-tetrahydroisoquinolin-7-yl)amino]-4-{[2-(1,3-oxazol-2-yl)phenyl]amino}pyrimidine-5-carboxamide], the half-maximal inhibitory concentration (IC50) came to 0.64 nM. For the compound `COc1cc(C(=O)N2CCN(C)CC2)ccc1Nc1ncc(C(N)=O)c(Nc2ccccc2C(F)(F)F)n1` [Example 11-1, 2-((2-methoxy-4-(4-methylpiperazine-1-carbonyl)phenyl)amino)-4-((2-(trifluoromethyl)phenyl)amino)pyrimidine-5-carboxamide], inhibition was half-maximal at 869 nM (IC50). With `COC(=O)N1CCc2cc(OC)c(Nc3ncc(C(N)=O)c(Nc4ccccc4Br)n3)cc2C1` [Example 12-12, methyl 7-({4-[(2-bromophenyl)amino]-5-carbamoylpyrimidin-2-yl}amino)-6-methoxy-3,4-dihydroisoquinoline-2(1H)-carboxylate], the IC50 was determined as 284 nM.

The values above are taken from patent US20230416225A1, “DIAMINOPYRIMIDINE CARBOXAMIDE INHIBITORS OF HPK1” (MERCK SHARP & DOHME LLC, priority 2020, published 2023).
